The target in experiment [1] is T1, Histone-lysine N-methyltransferase EHMT2 (Homo sapiens, UniProt Q96KQ7).
T1 sequence (Q96KQ7 whole entry): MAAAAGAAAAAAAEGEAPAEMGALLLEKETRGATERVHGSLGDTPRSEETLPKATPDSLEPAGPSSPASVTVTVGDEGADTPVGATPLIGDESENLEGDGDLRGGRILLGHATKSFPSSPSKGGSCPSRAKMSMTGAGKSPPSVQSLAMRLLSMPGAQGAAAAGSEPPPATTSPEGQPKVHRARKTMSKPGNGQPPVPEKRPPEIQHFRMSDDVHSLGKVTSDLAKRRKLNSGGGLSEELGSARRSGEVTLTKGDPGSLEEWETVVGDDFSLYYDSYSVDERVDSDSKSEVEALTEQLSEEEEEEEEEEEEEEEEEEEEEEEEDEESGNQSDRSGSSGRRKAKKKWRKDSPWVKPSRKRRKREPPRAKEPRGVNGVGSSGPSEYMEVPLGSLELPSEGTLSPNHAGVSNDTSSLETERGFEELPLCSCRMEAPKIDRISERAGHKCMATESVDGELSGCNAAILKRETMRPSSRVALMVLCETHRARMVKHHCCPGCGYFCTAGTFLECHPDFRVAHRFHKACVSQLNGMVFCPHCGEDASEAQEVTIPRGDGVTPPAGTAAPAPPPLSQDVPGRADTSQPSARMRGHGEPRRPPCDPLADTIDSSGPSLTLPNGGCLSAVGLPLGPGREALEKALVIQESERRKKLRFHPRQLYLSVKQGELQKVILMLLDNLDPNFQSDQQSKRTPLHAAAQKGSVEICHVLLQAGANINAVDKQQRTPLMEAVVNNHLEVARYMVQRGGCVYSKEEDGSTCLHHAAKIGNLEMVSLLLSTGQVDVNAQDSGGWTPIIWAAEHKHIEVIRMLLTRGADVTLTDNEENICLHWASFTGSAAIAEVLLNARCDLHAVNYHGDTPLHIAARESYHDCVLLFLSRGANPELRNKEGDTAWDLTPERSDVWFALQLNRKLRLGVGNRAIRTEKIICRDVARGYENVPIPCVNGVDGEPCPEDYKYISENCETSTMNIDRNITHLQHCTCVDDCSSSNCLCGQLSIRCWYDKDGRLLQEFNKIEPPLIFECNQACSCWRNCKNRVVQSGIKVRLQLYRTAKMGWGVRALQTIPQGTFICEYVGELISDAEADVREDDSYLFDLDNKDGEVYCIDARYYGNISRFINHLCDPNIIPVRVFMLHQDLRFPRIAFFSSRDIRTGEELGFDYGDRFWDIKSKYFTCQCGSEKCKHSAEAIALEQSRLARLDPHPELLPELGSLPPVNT
Nature of the experiment: Inhibition of human recombinant G9a catalytic domain amino acid 913 to 1193 expressed in Escherichia coli BL21 (DE3) by mass spectrophotometric assay.

Experiment [2] deals with T1, Histone-lysine N-methyltransferase EHMT2. Description: Binding affinity to human recombinant G9a catalytic domain amino acid 913 to 1193 expressed in Escherichia coli BL21 (DE3) by isothermal titration calorimetry assay.
Experiment [3] deals with T2, Histone-lysine N-methyltransferase EHMT1 (Homo sapiens, UniProt Q9H9B1).
T2 sequence (Q9H9B1 whole entry): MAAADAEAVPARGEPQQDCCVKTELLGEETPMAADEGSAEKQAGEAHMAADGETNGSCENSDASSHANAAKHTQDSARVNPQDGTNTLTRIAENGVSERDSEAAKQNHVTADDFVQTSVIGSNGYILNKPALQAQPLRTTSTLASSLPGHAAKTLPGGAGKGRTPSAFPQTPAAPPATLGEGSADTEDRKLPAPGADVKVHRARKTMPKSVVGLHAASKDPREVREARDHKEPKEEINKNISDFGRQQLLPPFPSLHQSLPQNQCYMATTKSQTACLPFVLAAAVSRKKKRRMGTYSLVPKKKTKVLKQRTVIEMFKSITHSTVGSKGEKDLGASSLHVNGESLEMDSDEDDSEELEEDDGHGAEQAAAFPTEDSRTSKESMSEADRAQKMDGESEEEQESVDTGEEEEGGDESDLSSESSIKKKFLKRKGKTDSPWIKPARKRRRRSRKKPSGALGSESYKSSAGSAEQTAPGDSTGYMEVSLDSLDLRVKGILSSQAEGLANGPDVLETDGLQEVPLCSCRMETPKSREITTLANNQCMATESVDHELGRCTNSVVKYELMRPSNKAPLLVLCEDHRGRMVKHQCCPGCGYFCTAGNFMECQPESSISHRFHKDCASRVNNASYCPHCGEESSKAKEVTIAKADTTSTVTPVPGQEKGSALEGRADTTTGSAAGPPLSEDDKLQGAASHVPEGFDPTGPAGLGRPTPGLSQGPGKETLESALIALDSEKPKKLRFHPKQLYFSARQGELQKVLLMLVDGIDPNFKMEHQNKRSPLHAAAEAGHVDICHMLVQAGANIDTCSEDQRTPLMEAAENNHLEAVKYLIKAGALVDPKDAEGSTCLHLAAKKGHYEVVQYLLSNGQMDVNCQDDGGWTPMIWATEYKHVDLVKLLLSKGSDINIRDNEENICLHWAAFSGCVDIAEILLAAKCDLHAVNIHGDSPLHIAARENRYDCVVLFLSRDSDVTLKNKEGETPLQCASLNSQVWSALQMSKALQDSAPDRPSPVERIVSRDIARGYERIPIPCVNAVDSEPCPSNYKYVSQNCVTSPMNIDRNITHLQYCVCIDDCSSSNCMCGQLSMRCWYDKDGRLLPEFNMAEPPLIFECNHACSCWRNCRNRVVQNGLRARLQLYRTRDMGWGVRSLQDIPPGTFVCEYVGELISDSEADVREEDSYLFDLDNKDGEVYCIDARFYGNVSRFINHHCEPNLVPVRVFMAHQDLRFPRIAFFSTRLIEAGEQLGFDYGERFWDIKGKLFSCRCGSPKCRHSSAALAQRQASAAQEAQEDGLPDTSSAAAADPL
Nature of the experiment: Binding affinity to human recombinant GLP catalytic domain amino acid 951 to 1235 expressed in Escherichia coli BL21 (DE3) by isothermal titration calorimetry assay.

The target of experiment [4] is T3, Histone-lysine N-methyltransferase Set8 (Drosophila melanogaster, UniProt Q9VFK6).
T3 sequence (Q9VFK6 whole entry): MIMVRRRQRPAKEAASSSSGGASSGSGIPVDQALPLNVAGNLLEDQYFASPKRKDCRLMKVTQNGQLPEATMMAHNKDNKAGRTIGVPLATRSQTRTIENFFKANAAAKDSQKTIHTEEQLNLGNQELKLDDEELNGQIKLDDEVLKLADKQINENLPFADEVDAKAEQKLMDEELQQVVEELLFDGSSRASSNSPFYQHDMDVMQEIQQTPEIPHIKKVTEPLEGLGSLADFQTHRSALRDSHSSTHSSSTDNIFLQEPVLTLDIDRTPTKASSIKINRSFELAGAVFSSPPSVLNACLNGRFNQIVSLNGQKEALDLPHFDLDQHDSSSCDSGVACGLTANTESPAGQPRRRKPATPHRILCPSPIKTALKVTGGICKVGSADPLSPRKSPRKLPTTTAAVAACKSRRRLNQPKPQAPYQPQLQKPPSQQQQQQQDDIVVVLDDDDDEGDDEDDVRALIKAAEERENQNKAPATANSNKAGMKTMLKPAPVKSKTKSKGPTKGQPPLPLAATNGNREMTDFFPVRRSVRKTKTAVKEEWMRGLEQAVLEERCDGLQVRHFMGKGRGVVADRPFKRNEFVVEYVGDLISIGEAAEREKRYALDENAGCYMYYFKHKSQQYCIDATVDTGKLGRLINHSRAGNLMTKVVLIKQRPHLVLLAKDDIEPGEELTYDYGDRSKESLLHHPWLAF
Description: Inhibition of Drosophila melanogaster PRSET7.

The target in experiment [5] is T4, Histone-lysine N-methyltransferase SUV39H1 (Homo sapiens, UniProt O43463).
T4 sequence (O43463 whole entry): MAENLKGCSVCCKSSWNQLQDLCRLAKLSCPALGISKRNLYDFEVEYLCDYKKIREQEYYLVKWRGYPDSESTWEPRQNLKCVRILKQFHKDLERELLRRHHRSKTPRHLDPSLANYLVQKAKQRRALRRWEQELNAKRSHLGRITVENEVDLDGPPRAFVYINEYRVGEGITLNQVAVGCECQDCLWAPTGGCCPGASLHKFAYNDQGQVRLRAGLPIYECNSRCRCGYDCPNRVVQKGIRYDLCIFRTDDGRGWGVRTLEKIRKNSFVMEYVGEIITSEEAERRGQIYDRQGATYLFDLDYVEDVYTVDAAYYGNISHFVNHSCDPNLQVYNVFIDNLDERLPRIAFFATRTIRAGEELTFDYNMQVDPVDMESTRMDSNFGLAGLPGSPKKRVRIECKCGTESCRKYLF
Nature of the experiment: Inhibition of human SUV39H1.

Experiment [6] can be described thus: Inhibition of Drosophila melanogaster SET7/9.
For experiment [7], the target named is Histone-lysine N-methyltransferase E(z) (Drosophila melanogaster, UniProt P42124). Nature of the experiment: Inhibition of Drosophila melanogaster E(Z).
In experiment [8] the target is T1, Histone-lysine N-methyltransferase EHMT2.
Description: Inhibition of GST-tagged G9a after 1 hr by radioactive filter-binding assay
Experiment [9] can be described thus: Inhibition of Neurospora crassa dim5.

Histone-lysine N-methyltransferase E(z), sequence (P42124 whole entry): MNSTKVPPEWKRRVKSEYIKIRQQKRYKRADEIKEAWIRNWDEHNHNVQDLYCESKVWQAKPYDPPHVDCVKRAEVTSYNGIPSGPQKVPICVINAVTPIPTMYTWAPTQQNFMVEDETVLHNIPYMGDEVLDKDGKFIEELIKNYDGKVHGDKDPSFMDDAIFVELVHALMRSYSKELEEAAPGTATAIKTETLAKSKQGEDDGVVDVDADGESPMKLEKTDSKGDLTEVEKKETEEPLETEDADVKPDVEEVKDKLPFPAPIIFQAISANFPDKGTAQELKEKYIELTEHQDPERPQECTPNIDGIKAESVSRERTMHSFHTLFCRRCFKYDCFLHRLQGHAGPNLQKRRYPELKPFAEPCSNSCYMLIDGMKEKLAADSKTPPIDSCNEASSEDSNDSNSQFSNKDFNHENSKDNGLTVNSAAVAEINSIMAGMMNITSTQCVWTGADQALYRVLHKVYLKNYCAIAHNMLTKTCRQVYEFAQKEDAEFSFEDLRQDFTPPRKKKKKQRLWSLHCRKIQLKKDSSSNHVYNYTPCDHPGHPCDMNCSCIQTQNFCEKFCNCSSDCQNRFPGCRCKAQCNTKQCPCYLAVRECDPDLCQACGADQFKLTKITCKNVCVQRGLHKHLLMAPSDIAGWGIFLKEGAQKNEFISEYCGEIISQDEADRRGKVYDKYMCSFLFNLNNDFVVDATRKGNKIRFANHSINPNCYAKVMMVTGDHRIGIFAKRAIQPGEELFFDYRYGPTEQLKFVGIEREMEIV

Turning to `COc1cc2c(NC3CCN(CCCCCN)CC3)nc(NCCCN(C)C)nc2cc1OCCCCCN`, the 50% inhibitory concentration (IC50) in experiment [1] turned out to be 1300 nM. The figures for the Kd in experiment [2] and in experiment [3] were 164 nM and 136 nM, respectively.
On to `CN1C(=O)[C@@]23C[C@]4([C@]56C[C@@]78SS[C@@](CO)(C(=O)N7[C@H]5Nc5ccccc56)N(C)C8=O)c5ccccc5N[C@@H]4N2C(=O)[C@]1(CO)SS3` [CHAETOCIN], for which the IC50 in [4] was more than 90000 nM; in experiment [5] it was 800 nM; in experiment [6], more than 90000 nM; in experiment [7] it was more than 90000 nM; in [8] it was 2400 nM; in experiment [9], 3000 nM.

The values above are taken from ChEMBL document CHEMBL2169811, “Oncoepigenomics: making histone lysine methylation count” (Eur J Med Chem, 2012).
